By EC50 is commonly meant the concentration giving half of the maximal effect. In general, IC50 refers to the midpoint of a concentration-inhibition curve. High values mean weaker potency, low ones greater potency.

Activity calls are given as the source filed them.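 The calls were made as follows: active = compounds giving half or more protection of infected cells from virus-caused growth loss, again on retest; inactive = the rest.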

In the assay the test system is CEM cells HIV-1 protection, formazan growth assay. In words: NCI AIDS Antiviral Assay. The settings on record: for IC50: measured here: growth of uninfected CEM cells. The method in brief: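 Human CEM cells, uninfected and HIV-1-infected, exposed to five drug concentrations; growth measured by soluble formazan assay and scored as percent protection from infection, with protecting compounds retested.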

Take `O=C(O)c1cccc(S(=O)(=O)c2ccc([N+](=O)[O-])cc2)c1`: the EC50 was greater than 200 µM and the IC50 is greater than 200 µM. In the case of `CC(=O)N=C1N(/C=C2\C(=O)Oc3ccccc3C2=O)C(=O)/C(=C/c2ccc(NC(C)=O)cc2)N1C`, the EC50 is greater than 200 µM and the IC50 was greater than 200 µM.

As for `Nc1ccc(Oc2ccc(S(=O)(=O)c3ccc(Oc4ccc(N)cc4N)cc3)cc2)c(N)c1`, the EC50 was greater than 200 µM and the IC50 was 120 µM. Turning to `CC1(C)CC2=NO[Se]3=C2C(=NO3)C1`, the EC50 is greater than 3.55 µM and the IC50 amounted to 0.191 µM. For `CCOC(=O)c1ccc(N2C(=O)c3cccc4cccc(c34)C2=O)cc1`, the EC50 was greater than 100 µM and the IC50 is greater than 100 µM. For the molecule `Cc1cc(O)cc(C)c1Cl`, the EC50 was 162 µM and the IC50 is greater than 200 µM. Regarding `O=c1oc2ccccc2c(O)c1C(c1ccc(C(c2c(O)c3ccccc3oc2=O)c2c(O)c3ccccc3oc2=O)cc1)c1c(O)c2ccccc2oc1=O`, the EC50 was greater than 200 µM and the IC50 stood at 50.1 µM. In the case of `Oc1ccc2ccccc2c1N=Nc1ccsc1`, the EC50 is greater than 20.4 µM and the IC50 was greater than 20.4 µM.

`CC1SC2=NC3=C(c4ccccc4C3=O)C(c3ccc(Cl)cc3)N2C1=O` (stereo not given): the EC50 is greater than 35.5 µM and the IC50 was greater than 35.5 µM.

For the molecule `CCOC(=O)C1(N)CC1`, the EC50 is greater than 200 µM and the IC50 is greater than 200 µM.

For the molecule `CS/C=C\C(=O)O[C@H]1C[C@@H]2[C@@H](O)c3occ(C)c3C[C@]2(C)[C@@H](C)C1`, the EC50 was greater than 200 µM and the IC50 came out at 30.2 µM. With `C=C1C2CCCC1C1(S(C)(=O)=O)CCCCC21O` (stereo not given), the result was inactive. With `O=[N+]([O-])c1cccc(/C=N\NS(=O)(=O)c2ccc(Cl)cc2)c1O`, the EC50 was greater than 363 µM and the IC50 was 61.7 µM.

In the case of `NC1(C(=O)O)CCCC1c1ccccc1` (stereo not given), the EC50 is greater than 6.61 µM and the IC50 was greater than 6.61 µM.

Turning to `c1ccc(-c2sc(-c3ccccc3)c3c2C2CCC3C2)cc1`, the EC50 is greater than 200 µM and the IC50 worked out at 36.3 µM. For `CCSCCCCCCCCCCCC(=O)OCC1OC(n2cc(C)c(=O)[nH]c2=O)CC1F` (stereo not given) the same measures were 0.0158 µM and 2 µM.

As to `CN1CC2=C(NC(=S)NC2c2ccccc2Cl)/C(=C/c2ccccc2Cl)C1` (stereo not given), the EC50 is greater than 200 µM and the IC50 is 13.2 µM.

As to `Cc1ccnc(NC(=O)Nc2ccccc2Cl)c1`, the EC50 was greater than 200 µM and the IC50 was greater than 200 µM. Regarding `CCn1c(O)c(C=Nc2ccccc2)s/c1=N/Nc1nc(C)c(C(C)=O)s1`, the EC50 is greater than 200 µM and the IC50 was greater than 200 µM. On to `O=C1CC(CC(O)[C@@H]2CCCC[C@@H]2O)CC(=O)N1c1ccccc1` (stereo not given in full), for which the EC50 is greater than 200 µM and the IC50 is greater than 200 µM. On to `O=C(CC(=O)C1CCOC1=O)C(=O)Nc1cccc(Cl)c1` (stereo not given), for which the outcome was inactive. `Cc1ccc2cc(-c3ccccc3)c3ccc(C)nc3c2n1.Cc1ccc2cc(-c3ccccc3)c3ccc(C)nc3c2n1.O=C1OC(C(O)C[O-])C(O)=C1O.[Cu+]`: the EC50 is greater than 25.1 µM and the concentration for half-maximal inhibition (IC50) was determined as 1.29 µM. On to `COc1ccc(C2(C3c4cc(OC)c(OC)cc4CCN3C)SCCCS2)cc1O` (stereo not given), for which the EC50 was greater than 200 µM and the concentration for half-maximal inhibition (IC50) amounted to 151 µM. On to `CCOC(=O)CN1CCC2CC1c1c([nH]c3ccccc13)C21OCCO1` (stereo not given), for which the EC50 was greater than 200 µM and the IC50 was greater than 200 µM. Turning to `CC(=O)Oc1c2c(cc3c1C(=O)NC1C3=CC(O)[C@@H](OC(C)=O)[C@H]1OC(C)=O)OCO2` (stereo not given in full), the result was inactive. Take `O=c1c(OS(=O)(=O)O)c(-c2ccc(OS(=O)(=O)O)c(OS(=O)(=O)O)c2)oc2cc(OS(=O)(=O)O)cc(OS(=O)(=O)O)c12`: the EC50 is greater than 100 µM and the IC50 amounted to 51.3 µM. On to `CC(C)(C)n1c(=O)n2n(c1=O)C1c3cccc4cccc(c34)C2C2c3cccc4cccc(c34)C1n1c(=O)n(C(C)(C)C)c(=O)n12`, for which the EC50 is greater than 200 µM and the IC50 came to 50.1 µM. As to `CNP(=S)(Oc1cc(Cl)c(Cl)cc1Cl)N1CCN(c2ccc(Cl)cc2)CC1` (stereo not given), the EC50 is greater than 36.3 µM and the IC50 was found to be 21.4 µM. In the case of `Nc1nn2cc3c(nc2c1N=Nc1ccc(Cl)cc1)CCCCC3`, the EC50 was greater than 151 µM and the IC50 is greater than 151 µM. Consider `COc1cc2c[n+](C)c3c4ccccc4ccc3c2cc1OC` (tested in a mixture with another compound), for which the EC50 was greater than 170 µM and the IC50 is 6.03 µM. In the case of `C/C(=N\N(C)C)C(CN1CCCCC1)C(c1ccccc1)c1c(O)c2ccccc2oc1=O` (stereo not given), the EC50 was greater than 69.2 µM and the IC50 is greater than 69.2 µM.

As to `COc1cccc(OC)c1C(=O)OCc1ccccc1`, the EC50 is greater than 95.5 µM and the IC50 was greater than 95.5 µM.

Consider `Nc1ncc2c(ncn2CCO)n1`, for which the EC50 is greater than 282 µM and the IC50 was greater than 282 µM. Regarding `Cc1cccc([B-]23OCC[N+]2(CNC(=O)C2=C(O)C4(O)C(=O)C5=C(O)c6c(O)cccc6C(C)(O)C5CC4C(N(C)C)C2=O)CCO3)c1` (stereo not given), the EC50 was greater than 38.9 µM and the IC50 was greater than 38.9 µM.

As for `CC(C)(C)C1=Cc2cc3cc(C(C)(C)C)[nH]c(=O)c3cc2S(=O)(=O)N1`, the EC50 is greater than 7.59 µM and the IC50 was greater than 7.59 µM. Take `C/C=C1/C=CC2c3[nH]c4ccccc4c3CCN2C1` (stereo not given): the EC50 is greater than 145 µM and the IC50 was 93.3 µM. Turning to `O=C(Nc1ccc(NC(=O)Nc2cc(C(=O)Nc3ccc(C4=NCCN4)cc3)ccc2C(=O)Nc2ccc(C3=NCCN3)cc2)cc1)Nc1cc(C(=O)Nc2ccc(C3=NCCN3)cc2)ccc1C(=O)Nc1ccc(C2=NCCN2)cc1`, the EC50 is 31.6 µM and the IC50 was greater than 100 µM. As to `COc1ccc(NS(=O)c2ccc(Cl)cc2)cc1` (stereo not given), the EC50 was greater than 200 µM and the IC50 was 17.4 µM. Consider `Cc1ccc(-c2cnc(NC3OC(COC(=O)c4ccccc4)C(OC(=O)c4ccccc4)C(OC(=O)c4ccccc4)C3OC(=O)c3ccccc3)s2)cc1` (stereo not given), for which the EC50 is greater than 200 µM and the half-maximal inhibitory concentration (IC50) was 13.8 µM.

For `O=S1(=O)OCCOS(=O)(=O)C1Cl`, the EC50 was greater than 1050 µM and the IC50 was 178 µM. In the case of `CC(=O)OCc1nnn2c1CCC2`, the outcome was inactive.

On to `COc1cc2c(cc1OC)C13CCC(O)CC1=CC2(C)O3` (stereo not given), for which the EC50 was greater than 646 µM and the 50% inhibitory concentration (IC50) was greater than 646 µM. As to `Nc1ncnc2c1ccn2CC#CCO`, the EC50 was greater than 200 µM and the IC50 is greater than 200 µM. In the case of `CC1=Nc2cc(C)c(C)cc2NC(=O)C1`, the EC50 is greater than 200 µM and the IC50 was greater than 200 µM. For `COc1ccc(C2C3=C(COC3=O)OC(C)(C)Oc3cc4c(cc32)OCO4)cc1OC` (stereo not given), the EC50 was greater than 200 µM and the IC50 was determined as 12.3 µM. With `OC1CCCC1C(O)(C(F)(F)F)C(F)(F)F` (stereo not given), the outcome was inactive.

On to `COCn1c(C)c(C)c2c(=O)oc(C)nc21`, for which the EC50 is greater than 200 µM and the half-inhibitory concentration (IC50) was greater than 200 µM.

For `COc1ccc(/C=C2\N=C(N3CCOCC3)NC2=O)cc1`, the EC50 was greater than 200 µM and the IC50 was greater than 200 µM. On to `CC(=O)Nc1c(C#N)c2n(c1C(=O)Nc1ccc(C)cc1)CCC2`, for which the EC50 was greater than 100 µM and the IC50 was greater than 100 µM. For `COc1cc(O)c2c(c1)O[C@H](C)[C@H](C)C2=O`, the EC50 was 100 µM and the IC50 was greater than 200 µM.

For the origin of these results see PubChem BioAssay AID179 (DTP/NCI, 2004).
